Experimental data: patent publication US20110269680A1 (PANACEA BIOTEC LIMITED, priority 2008, published 2011)

Assays:
DPP-IV = biological target: T1, DPP-IV (Homo sapiens, UniProt P27487); assay: DPP-IV resistant assay; format: in vitro ADME
T1 construct: purchased Sigma-Aldrich
Description: 20 μM of peptides of the present invention (Sequence IDs—01, 02, 03, 04, 05, 06, 11, 12 and 13) were incubated with 60 mU/2 ml of DPP-IV (Sigma-Aldrich) enzyme at room temperature (22-24° C.) in 20 mM Tris HCl buffer, pH 8.0. The aliquots were analyzed for the amount of undegraded peptide concentration at different time intervals by RP-HPLC. The peak area integration was used to determine the amount of undegraded peptide (U.S. Pat. No. 7,067,488). T1/2 of each peptide was determined from the graph plotted between peak area of undegraded peptide vs. time. The peak area of DPP-IV untreated peptide in above mentioned buffer condition of same concentration was considered as time zero. […]

NEP 24.11 = biological target: T2, NEP 24.11 (Homo sapiens, UniProt P08473); assay: NEP 24.11 resistant (degradation) assay; format: in vitro ADME; conditions: pH 7.4
T2 construct: purchased Calbiochem
T2 sequence (P08473 whole entry): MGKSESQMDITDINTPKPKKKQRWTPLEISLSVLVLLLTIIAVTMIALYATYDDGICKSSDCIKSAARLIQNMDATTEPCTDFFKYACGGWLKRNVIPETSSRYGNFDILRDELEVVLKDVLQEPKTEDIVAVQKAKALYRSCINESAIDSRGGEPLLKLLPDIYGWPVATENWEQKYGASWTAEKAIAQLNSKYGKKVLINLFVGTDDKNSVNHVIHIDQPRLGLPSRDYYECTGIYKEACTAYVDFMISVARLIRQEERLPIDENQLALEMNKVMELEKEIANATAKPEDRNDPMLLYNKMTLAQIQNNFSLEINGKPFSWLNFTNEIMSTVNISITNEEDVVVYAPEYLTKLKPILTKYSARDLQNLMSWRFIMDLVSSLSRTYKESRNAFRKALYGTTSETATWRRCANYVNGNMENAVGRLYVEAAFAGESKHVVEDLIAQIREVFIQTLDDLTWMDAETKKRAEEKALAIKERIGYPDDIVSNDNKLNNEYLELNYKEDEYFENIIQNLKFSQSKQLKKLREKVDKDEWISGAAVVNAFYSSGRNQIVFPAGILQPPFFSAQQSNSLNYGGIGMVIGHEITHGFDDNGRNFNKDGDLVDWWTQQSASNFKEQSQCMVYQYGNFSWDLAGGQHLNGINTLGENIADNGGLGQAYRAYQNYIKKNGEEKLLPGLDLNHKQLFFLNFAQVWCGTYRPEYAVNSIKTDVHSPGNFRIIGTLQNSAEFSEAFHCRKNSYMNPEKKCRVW
Description: The aliquots were analyzed for the amount of undegraded peptide concentration at different time intervals using RP-HPLC by peak area integration. T1/2 of each peptide was determined from the graph plotted between peak area of undegraded peptide vs time.

C57/BL6 male mice = assay: OGTT and dose response effect of peptide of Seq ID No. 01; format: in vivo
Description: C57/BL6 male mice were fasted for 6 hrs. After 6 h of fasting, blood was drawn from a small tail clip for glucose level determination. […] Glucose was given orally at the ratio 1 mg/g body wt. per mouse 5 min after the administration of peptide. Blood glucose levels were determined at different time intervals i.e. at 0, 15, 30, 60, and 120 min during a period of 2 hours using a portable glucometer. The saline solution was used as control negative in the experiment.

db/db mice = assay: Anti-diabetic activity of peptide in db/db mice; format: in vivo; conditions: 25 nmol/kg daily i.p., versus saline
Description: Animals of two different age groups (6-8 and 10-12 weeks old db/db mice) were included in this study. 6-8 week old mice were chosen as pre-diabetic mice and 10-12 week old as the full-diabetic mice. The preventive effect of peptide of Seq. ID No. 01 on the progression of diabetes in pre-diabetic mice was examined. The effect of peptide of Seq. ID No. 01 in full-diabetic mice was also studied. […] Blood glucose levels were measured on day 0, 14, 28 and 42. Test peptide of Seq ID No. 01 was injected i.p. according to body weight and the feed was removed. Mice were not fed till 4 hrs following injection of the peptide on the day of blood sample testing. Normal chow was given after the 4 hr time point. […] Test compound/vehicle (saline solution i.e. control negative) to be administered at 0 hr.

T1 sequence (P27487 whole entry, species assumed): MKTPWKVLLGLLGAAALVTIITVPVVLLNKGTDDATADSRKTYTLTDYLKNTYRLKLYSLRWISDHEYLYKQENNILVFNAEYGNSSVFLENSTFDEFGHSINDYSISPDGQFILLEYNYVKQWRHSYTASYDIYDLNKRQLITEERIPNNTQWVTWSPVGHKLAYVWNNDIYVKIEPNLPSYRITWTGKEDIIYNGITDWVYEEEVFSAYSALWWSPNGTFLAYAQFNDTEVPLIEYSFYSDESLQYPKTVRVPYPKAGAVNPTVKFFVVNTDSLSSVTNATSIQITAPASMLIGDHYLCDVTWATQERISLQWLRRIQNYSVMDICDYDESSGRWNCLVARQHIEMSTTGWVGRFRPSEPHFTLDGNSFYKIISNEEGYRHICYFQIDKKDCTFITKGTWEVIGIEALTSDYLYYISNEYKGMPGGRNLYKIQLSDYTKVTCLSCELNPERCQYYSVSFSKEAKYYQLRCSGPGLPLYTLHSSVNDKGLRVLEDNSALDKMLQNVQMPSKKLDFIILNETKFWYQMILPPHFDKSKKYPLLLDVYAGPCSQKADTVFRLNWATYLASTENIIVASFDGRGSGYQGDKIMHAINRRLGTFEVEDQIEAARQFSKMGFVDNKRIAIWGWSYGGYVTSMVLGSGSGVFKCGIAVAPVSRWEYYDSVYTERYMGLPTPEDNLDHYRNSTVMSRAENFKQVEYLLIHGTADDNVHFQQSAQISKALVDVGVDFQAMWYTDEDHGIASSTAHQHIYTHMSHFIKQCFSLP

SMILES: CC[C@H](C)[C@H](NC(=O)[C@H](Cc1ccccc1)NC(=O)[C@H](CCC(=O)O)NC(=O)[C@H](CCCCN)NC(=O)[C@H](C)NC(=O)[C@H](C)NC(=O)[C@H](CCC(N)=O)NC(=O)CNC(=O)[C@H](CCC(=O)O)NC(=O)[C@H](CC(C)C)NC(=O)[C@H](Cc1ccc(O)cc1)NC(=O)[C@H](CO)NC(=O)[C@H](CO)NC(=O)[C@@H](NC(=O)[C@H](CC(=O)O)NC(=O)[C@H](CO)NC(=O)[C@@H](NC(=O)[C@H](Cc1ccccc1)NC(=O)[C@@H](NC(=O)CNC(=O)[C@H](CCC(=O)O)NC(=O)c1ccc(CNC(=O)[C@@H](N)Cc2c[nH]cn2)o1)[C@@H](C)O)[C@@H](C)O)C(C)C)C(=O)N[C@@H](C)C(=O)N[C@@H](Cc1c[nH]c2ccccc12)C(=O)N[C@@H](CC(C)C)C(=O)N[C@H](C(=O)N[C@@H](CCCCN)C(=O)NCC(=O)N[C@@H](CCCNC(=N)N)C(=O)NCC(N)=O)C(C)C [Seq ID No. 01]
- Percentage degradation in hrs (DPP-IV): 25%
- half-life at 20 μM (DPP-IV; pH 8): > 3 days
- half-life at 20 μM (NEP 24.11; buffer): 1740 min
- metabolised at 54 h, 20 μM (NEP 24.11; isolated enzyme neprilysin): 92.6%
- optimum dose (C57/BL6 male mice; OGTT dose response, intraperitoneally): 25 nmol/kg
- dose response, percent reduction in blood glucose (AUC0-60) (C57/BL6 male mice; OGTT, 100, 25, 10, 5 and 1 nmol/kg intraperitoneally, FIG. 11): no significant difference between 100 nmol and 25 nmol doses
- blood glucose level, progression of diabetes (db/db mice; 6-8 weeks old db/db mice, 42 days): delayed the progression of diabetes as compared to control negative group
- blood glucose level, activity versus control negative (db/db mice; 10-12 weeks old db/db mice, 28 days): better activity as compared to control negative group
